The values that follow come from PubChem BioAssay (NCI).

What all share (assay): growth of human tumour cells (NCI), 48 h
Assay [1] relates to SF-268 CNS.
Assay [2] concerns A549 NSCLC.
Assay [3] relates to HT29 colon.
The subject of assay [4] is OVCAR-5 ovarian.
The subject of assay [5] is ACHN renal.
Assay [6] relates to M14 melanoma.
The test system of assay [7] is DU-145 prostate.
Assay [8] concerns SW-620 colon.
For assay [9], the system named is RPMI-8226 leukemia.
The test system of assay [10] is HL-60(TB) leukemia.

SMILES strings stand for the structures.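 Compound exposure: 48 hours, 5 concentrations, 96-well plates. GI50 = concentration required for 50% inhibition of growth. TGI is the concentration that stops growth completely.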

For `Cc1ccc(C=C2C(Cl)=C(Cl)C(Cl)=C2Cl)cc1`, the GI50 was 0.617 µM in assay [1]; 1.7 µM in assay [2]; 0.796 µM in assay [3]; 0.978 µM in assay [4]; 0.7 µM in assay [5]; 0.561 µM in assay [6]. Besides, the GI50 in assay [7] was 0.926 µM; in assay [8], 0.339 µM; in [9], 0.224 µM; in [10], 0.363 µM. Further, the TGI was 2.28 µM in assay [1]; 3.84 µM in assay [2]; 2.89 µM in assay [3]; 2.49 µM in assay [4]; 1.94 µM in assay [5]; 1.66 µM in [6]. Besides, the TGI is 3.13 µM in [7], 1.18 µM in assay [8], 0.653 µM in [9] and 1.53 µM in assay [10].
Regarding `COC(=O)c1ccc(/C=C(\c2ccc([N+](=O)[O-])o2)S(=O)(=O)c2ccc(NC(C)=O)cc2)o1`, the TGI came to 30.9 µM in [1]; 34.1 µM in assay [2]; 5.76 µM in [3]; 10.9 µM in [4]; 11.1 µM in assay [5]; 15.4 µM in assay [6]. Besides, the TGI stood at 21.9 µM in [7], 11.8 µM in [8], 3.03 µM in [9] and 8.69 µM in assay [10].
In the case of `N#CC(C#N)=C1CCOc2ccc(F)cc21`, the GI50 is 14.6 µM in assay [1]; 26 µM in assay [2]; 64.2 µM in assay [3]; 16.4 µM in assay [4]; 13.3 µM in assay [5]; 19.5 µM in assay [6]. In addition, the GI50 in assay [7] is 14 µM; in assay [8], 29.6 µM; in assay [9], 17.4 µM; in assay [10] it was 66.5 µM. The TGI in assay [1] was 48.4 µM; in assay [2], over 100 µM; in assay [3], over 100 µM; in assay [4], 39.9 µM; in assay [5] it was 26 µM; in assay [6] it was 45.9 µM. Also, the TGI in assay [7] was 34.6 µM; in assay [8], over 100 µM; in [9] it was 38.4 µM; in assay [10], over 100 µM.
Take `COC(=O)c1cc2oc(/C=C3/SC(=S)N(N)C3=O)cc2n1Cc1ccccc1`: the GI50 in assay [1] is 2.22 µM; in [2], 5.12 µM; in assay [3] it was 7.47 µM; in [4], 4.65 µM; in assay [5], 7.08 µM; in assay [6], 4.33 µM. The GI50 in assay [7] is 3.59 µM; in assay [8], 13.4 µM; in assay [9] it was over 27.5 µM; in [10], over 15.7 µM. The TGI in [1] was 7.73 µM; in assay [2], 33.1 µM; in [3], 19.4 µM; in [4], 20.7 µM; in [5], 25.8 µM; in assay [6], 31.2 µM. Further, the TGI in assay [7] was 15.7 µM; in [8] it was over 29.5 µM; in [9], over 100 µM; in assay [10], over 100 µM.
As to `C#Cc1cccc(Nc2ncnc3ccc(OCCCCNCCS(C)(=O)=O)cc23)c1`, the GI50 is 6.13 µM in assay [1]; 6.43 µM in [2]; 5.44 µM in assay [3]; 4.93 µM in assay [4]; 0.945 µM in assay [5]; 5.11 µM in assay [6]. Also, the GI50 in assay [7] was 4.34 µM; in assay [8], 9.43 µM; in assay [9] it was 4.59 µM; in [10], 5.37 µM. Further, the TGI is over 23.7 µM in [1]; over 25 µM in [2]; 12.5 µM in assay [3]; over 25 µM in assay [4]; over 25 µM in assay [5]; 9.66 µM in [6]. The TGI in assay [7] was over 25 µM; in assay [8], over 25 µM; in assay [9], 15.3 µM; in assay [10], 11.3 µM.
With `COc1c(/C=C/C=O)cc2c(c1OC)OCO2`, the TGI was over 100 µM in assay [1]; over 100 µM in assay [2]; 69.5 µM in assay [3]; over 100 µM in [4]; over 100 µM in [5]; 56.2 µM in assay [6]. The TGI in [7] was over 100 µM; in assay [8], over 100 µM; in assay [9], 43.4 µM; in assay [10], 53.1 µM.
Regarding `CC(C)[C@@](O)(c1ccc2cc(OC(F)F)c(OC(F)F)cc2c1)c1cn[nH]n1`, the GI50 is 18.6 µM in assay [1]; 17.6 µM in assay [2]; 18.6 µM in [3]; 21.7 µM in assay [4]; 22.6 µM in assay [5]; 16 µM in assay [6]. Further, the GI50 was 16.7 µM in assay [7], 19.7 µM in assay [8], 17.3 µM in [9] and 21.9 µM in [10]. In addition, the TGI was determined as 49.4 µM in assay [1]; 38.7 µM in [2]; 41.6 µM in [3]; 55.6 µM in assay [4]; 83.2 µM in [5]; 33.4 µM in assay [6]. Also, the TGI is 39.2 µM in [7], 43.2 µM in assay [8], 61.4 µM in [9] and 66.6 µM in assay [10].
Regarding `C=CC(=O)N1C[C@@H]2CCOc3c(Cl)c(-c4c(O)cccc4F)c(F)c4ncnc(c34)N2C[C@H]1C`, the GI50 in [1] is 12.5 µM; in assay [2], 15.3 µM; in assay [3], 18.6 µM; in assay [4], 16.3 µM; in assay [5], 10.5 µM; in assay [6], 12.5 µM. In addition, the GI50 was 10.5 µM in assay [7], 13.9 µM in assay [8], 5.96 µM in [9] and 4.81 µM in assay [10]. For the same compound, the TGI was determined as 29.1 µM in assay [1]; 34.7 µM in [2]; 52.5 µM in assay [3]; 31.1 µM in assay [4]; 22.2 µM in assay [5]; 27.7 µM in assay [6]. Also, the TGI in [7] was 22.3 µM; in [8] it was 33.1 µM; in assay [9] it was over 100 µM; in assay [10], 33.1 µM.
As to `COc1cc([N+](=O)[O-])c(OC)cc1-c1nc2sc(C)cn2c1/C(N)=N/C(=N)N`, the GI50 was 22 µM in [1]; 40.7 µM in assay [2]; over 100 µM in assay [3]; over 100 µM in [4]; 50.2 µM in [5]; over 100 µM in assay [6]. Also, the GI50 is 16.1 µM in assay [7], 5.78 µM in assay [8], 84.1 µM in [9] and over 100 µM in assay [10]. The TGI in [1], in assay [2], in [3], in assay [4], in assay [5] and in assay [6] was over 100 µM in each case. The TGI in assay [7], in [8], in [9] and in assay [10] was over 100 µM each time.
For `O=c1cnnc(N/N=C/c2ccccc2O)[nH]1`, the GI50 in assay [1] is 3.45 µM; in assay [2] it was 1.55 µM; in [3], 0.646 µM; in assay [4], 1.22 µM; in assay [5] it was 1.19 µM; in assay [6], 0.449 µM. Besides, the GI50 in assay [7] is 6.58 µM; in assay [8] it was 0.442 µM; in [9], 1.23 µM; in assay [10], 2.91 µM. Moreover, the TGI in [1] was over 87.3 µM; in assay [2] it was over 100 µM; in assay [3], over 100 µM; in assay [4], over 100 µM; in assay [5] it was over 100 µM; in assay [6], 19.2 µM. Further, the TGI was over 100 µM in assay [7], over 100 µM in assay [8], over 72.9 µM in assay [9] and 21.8 µM in assay [10].
Regarding `CCOC(=O)C1=C(C)NC(=O)NC1CN1C(=O)c2ccccc2C1=O` (stereo not given), the GI50 in assay [1], in assay [2], in [3], in assay [4], in [5] and in [6] was over 100 µM in each case. In addition, the GI50 in assay [7], in assay [8], in assay [9] and in assay [10] was over 100 µM in each case. In addition, the TGI in assay [1], in assay [2], in assay [3], in [4], in [5] and in assay [6] was over 100 µM each time. Moreover, the TGI in assay [7], in [8], in [9] and in assay [10] was over 100 µM each time.
Consider `COc1ccc(NC2=C(I)C(=O)c3ncccc3C2=O)cc1`, for which the GI50 in assay [1] was 1.28 µM; in assay [2] it was 1.84 µM; in [3], 3.07 µM; in assay [4] it was 1.69 µM; in assay [5] it was 1.81 µM; in assay [6], 1.29 µM. In addition, the GI50 in assay [7] is 0.524 µM; in [8] it was 1.13 µM; in assay [9] it was 1.17 µM; in assay [10], 1.94 µM. Moreover, the TGI in assay [1] came out at 4.23 µM; in [2], 3.91 µM; in assay [3], 10.2 µM; in assay [4] it was 3.15 µM; in [5], 8.53 µM; in [6] it was 2.9 µM. In addition, the TGI was 1.87 µM in assay [7], 3.06 µM in assay [8], 3.85 µM in assay [9] and 4.34 µM in [10].
